# Measured values from ChEMBL document CHEMBL6096657, “Exploring structure-directed immunogenic cytotoxicity of arginine-rich peptides for cytolysis-induced immunotherapy of cancer” (Bioorg Med Chem, 2024).
# The source made the active and inactive calls. No cut-off for these calls is given here. Where a SMILES comes first, the peptide text is derived from it. Bridges are numbered along the chain shown (N, C = ends).
# Key:
# [1] = test system: 4T1; assay: Induction of immunogenic cell death in mouse 4T1 cells assessed as ATP release at 4 to 32 uM measured after 2 hrs; type: functional, cell-based; details: dose 4-32 µM
# [2] = test system: 4T1; assay: Cytotoxicity against mouse 4T1 cells assessed as cell death rate at 8 uM by PI staining based confocal microscopic analysis; type: functional
# [3] = test system: 4T1; assay: Induction of apoptosis in mouse 4T1 cells assessed as increase in caspase-3 activity measured at 60 mins; type: functional, cell-based
# [4] = Cytotoxicity against mouse BMDM cells; type: toxicity, cell-based; details: BMDM cells (bone marrow-derived macrophages)
# [5] = test system: 4T1; assay: Induction of apoptosis in mouse 4T1 cells assessed as increase in late necrotic cell death incubated for 24 hrs by Annexin V/FITC staining based flow cytometry analysis; type: functional
# [6] = test system: 4T1; assay: Induction of necrosis in mouse 4T1 cells cocultured with mouse BMDC cells at 12 uM incubated for 4 hrs by flow cytometry analysis; type: functional, cell-based
# [7] = test system: 4T1; assay: Induction of immunogenic cell death in mouse 4T1 cells assessed as HMGB1 release at 4 to 32 uM measured after 2 hrs; type: functional, cell-based; details: dose 4-32 µM
# [8] = test system: 4T1; assay: Induction of necroptosis in mouse 4T1 cells assessed as increase in cell viability in presence of necrostatin-1 by MTT assay; type: functional, cell-based; details: dose 0.625-30 µM
# [9] = test system: 4T1; assay: Cytotoxicity against mouse 4T1 cells; type: functional, cell-based
# [10] = test system: 4T1; assay: Cytotoxicity against mouse 4T1 cells assessed as cell death rate at 8 uM measured after 1 hr by MTT assay; type: functional
# [11] = test system: 4T1; assay: Cytotoxicity against mouse 4T1 cells at 8 uM measured after 15 mins by MTT assay; type: functional, cell-based
# [12] = test system: 4T1; assay: Induction of morphological changes in mouse 4T1 cells at 8 uM by PI staining based confocal microscopic analysis; type: functional, cell-based
# [13] = test system: 4T1; assay: Induction of immunogenic cell death in mouse 4T1 cells assessed as ATP release at 4 to 32 uM measured after 4 hrs; type: functional, cell-based; details: dose 4-32 µM
# [14] = test system: 4T1; assay: Induction of ROS generation in mouse 4T1 cells 24 hrs by DCFDA-fluorescence based flow cytometry; type: functional, cell-based
# [15] = test system: 4T1; assay: Induction of immunogenic cell death in mouse 4T1 cells assessed as increase in CRT translocation to cell surface at 4 to 32 uM; type: functional, cell-based; details: dose 4-32 µM
# [16] = test system: 4T1; assay: Induction of apoptosis in mouse 4T1 cells assessed as increase in caspase-3 activity measured at 30 mins; type: functional, cell-based
# [17] = Cytotoxicity against mouse BMDC cells; type: toxicity, cell-based; details: BMDC cells (bone marrow-derived dendritic cells)
# [18] = test system: THP-1; assay: Induction of M1 macrophage polarization in human THP-1 cells assessed as increase in IL-1beta level measured after 48 hrs; type: functional, cell-based
# [19] = test system: 4T1; assay: Cytotoxicity against mouse 4T1 cells assessed as cell viability by MTT assay; type: functional, cell-based
# [20] = test system: 4T1; assay: Antitumor activity against mouse 4T1 cells implanted in mouse assessed as reduction in tumor size; type: functional, cell-based
# [21] = test system: 4T1; assay: Induction of morphological changes in mouse 4T1 cells at 10 uM by PI staining based confocal microscopic analysis; type: functional, cell-based
# [22] = test system: 4T1; assay: Cytotoxicity against mouse 4T1 cells assessed as cell death rate at 4 uM measured after 2 hrs by MTT assay; type: functional
# [23] = test system: 4T1; assay: Induction of immunogenic cell death in mouse 4T1 cells assessed as HMGB1 release at 4 to 32 uM measured after 4 hrs; type: functional, cell-based; details: dose 4-32 µM
# [24] = test system: 4T1; assay: Induction of apoptosis in mouse 4T1 cells assessed as early apoptotic cell incubated for 24 hrs by Annexin V/FITC staining based flow cytometry analysis; type: functional
# [25] = test system: 4T1; assay: Cytotoxicity against mouse 4T1 cells assessed as cell death rate at 4 uM measured after 15 mins by MTT assay; type: functional, cell-based
# [26] = test system: 4T1; assay: Induction of apoptosis in mouse 4T1 cells assessed as cell death in presence of Ac-DEVD-CHO; type: functional, cell-based
# [27] = test system: 4T1; assay: Cytotoxicity against mouse 4T1 cells assessed as cell death rate at 10 uM by PI staining based confocal microscopic analysis; type: functional
# [28] = test system: 4T1; assay: Induction of necrosis in mouse 4T1 cells cocultured with mouse BMDC cells at 15 uM incubated for 4 hrs by flow cytometry analysis; type: functional, cell-based
# [29] = test system: 4T1; assay: Induction of necrosis in mouse 4T1 cells cocultured with mouse BMDC cells at 6 uM incubated for 4 hrs by flow cytometry analysis; type: functional, cell-based
# [30] = test system: 4T1; assay: Cytotoxicity against mouse 4T1 cells assessed as cell death rate at 4 uM measured at 30 mins by MTT assay relative to control; type: functional; details: 0.5 h
# [31] = test system: 4T1; assay: Induction of immunogenic cell death in mouse 4T1 cells assessed as increase in CRT translocation to cell surface at 2 to 16 uM; type: functional, cell-based; details: dose 2-16 µM
# [32] = test system: 4T1; assay: Induction of immunogenic cell death in mouse 4T1 cells assessed as ATP release at 2 to 16 uM measured after 4 hrs; type: functional, cell-based; details: dose 2-16 µM
# [33] = test system: 4T1; assay: Induction of immunogenic cell death in mouse 4T1 cells assessed as ATP release at 2 to 16 uM measured after 2 hrs; type: functional, cell-based; details: dose 2-16 µM
# [34] = test system: 4T1; assay: Cytotoxicity against mouse 4T1 cells assessed as cell death rate at 4 uM measured at 15 mins by MTT assay relative to control; type: functional; details: 0.25 h
# [35] = test system: 4T1; assay: Induction of immunogenic cell death in mouse 4T1 cells assessed as HMGB1 release at 2 to 16 uM measured after 2 hrs; type: functional, cell-based; details: dose 2-16 µM
# [36] = test system: 4T1; assay: Induction of morphological changes in mouse 4T1 cells at 4 uM by PI staining based confocal microscopic analysis; type: functional, cell-based
smiles,measurement,setting,value
CC(=O)N[C@@H](Cc1ccccc1)C(=O)N[C@@H](Cc1c[nH]c2ccccc12)C(=O)N[C@@H](Cc1ccccc1)C(=O)N[C@@H](CC(C)C)C(=O)N[C@H]1CSSC[C@@H](C(N)=O)NC(=O)[C@H](CCCNC(=N)N)NC(=O)[C@H](CCCNC(=N)N)NC(=O)[C@H](CCCNC(=N)N)NC(=O)[C@H](CCCNC(=N)N)NC(=O)[C@H](CCCNC(=N)N)NC(=O)[C@H](CCCNC(=N)N)NC(=O)[C@H](CCCNC(=N)N)NC(=O)[C@H](CCCNC(=N)N)NC1=O (Ac-FWFLCRRRRRRRRC-NH2; disulfide 5-14),Activity,[1],Active
same,Activity,[2],Active
same,Activity,[3],inactive
same,IC50,[4],10.3 µM
same,Activity,[5],Active
same,Activity,[6],Active
same,Activity,[7],Active
same,Activity,[8],Dose-dependent-effect
same,IC50,[9],7.5 µM
same,Activity,[10],50%
same,Activity,[11],Active
same,Activity,[12],Active
same,Activity,[13],Active
same,Activity,[14],Active
same,Activity,[15],Active
same,Activity,[16],inactive
same,IC50,[17],7.8 µM
same,Activity,[18],Active
same,IC50,[19],7.5 µM
same,Activity,[20],Active
N=C(N)NCCC[C@@H]1NC(=O)[C@H](CCCNC(=N)N)NC(=O)[C@H](CCCNC(=N)N)NC(=O)[C@H](CCCNC(=N)N)NC(=O)[C@H](CCCNC(=N)N)NC(=O)[C@H](CCCNC(=N)N)NC(=O)[C@H](CCCNC(=N)N)NC(=O)[C@H](CCCNC(=N)N)NC(=O)[C@@H](NC(=O)[C@H](Cc2ccccc2)NC(=O)[C@H](Cc2ccccc2)NC(=O)[C@H](Cc2ccccc2)NC(=O)[C@@H](N)Cc2ccccc2)CSSC[C@@H](C(=O)O)NC1=O (H-FFFFCRRRRRRRRC-OH; disulfide 5-14),IC50,[19],8.8 µM
CC(=O)N[C@@H](CC(C)C)C(=O)N[C@@H](CC(C)C)C(=O)N[C@@H](CC(C)C)C(=O)N[C@@H](CC(C)C)C(=O)N[C@H]1CSSC[C@@H](C(N)=O)NC(=O)[C@H](CCCNC(=N)N)NC(=O)[C@H](CCCNC(=N)N)NC(=O)[C@H](CCCNC(=N)N)NC(=O)[C@H](CCCNC(=N)N)NC(=O)[C@H](CCCNC(=N)N)NC(=O)[C@H](CCCNC(=N)N)NC(=O)[C@H](CCCNC(=N)N)NC(=O)[C@H](CCCNC(=N)N)NC1=O (Ac-LLLLCRRRRRRRRC-NH2; disulfide 5-14),IC50,[19],9.3 µM
CC(=O)N[C@@H](CCCNC(=N)N)C(=O)N[C@@H](CC(C)C)C(=O)N[C@@H](CC(C)C)C(=O)N[C@@H](CCCNC(=N)N)C(=O)N[C@@H](CC(C)C)C(=O)N[C@@H](CC(C)C)C(=O)N[C@@H](CCCNC(=N)N)C(=O)N[C@@H](CC(C)C)C(=O)N[C@@H](CCCNC(=N)N)C(=O)N[C@@H](CCCNC(=N)N)C(=O)N[C@@H](CC(C)C)C(=O)N[C@@H](CC(C)C)C(=O)N[C@@H](CCCNC(=N)N)C(=O)N[C@@H](CC(C)C)C(N)=O (Ac-RLLRLLRLRRLLRL-NH2),Activity,[1],Active
same,Activity,[21],inactive
same,Activity,[3],Active
same,Activity,[22],50%
same,Activity,[23],Active
same,Activity,[7],Active
same,Activity,[24],Active
same,Activity,[13],Active
same,Activity,[14],Active
same,Activity,[25],Active
same,Activity,[16],Active
same,Activity,[26],Active
same,Activity,[27],Active
same,Activity,[28],Active
same,IC50,[19],9.3 µM
CC(=O)N[C@@H](CCCNC(=N)N)C(=O)N[C@@H](CC(C)C)C(=O)N[C@@H](CC(C)C)C(=O)N[C@@H](CCCNC(=N)N)C(=O)N[C@@H](CC(C)C)C(=O)N[C@@H](CC(C)C)C(=O)N[C@@H](CCCNC(=N)N)C(=O)N[C@@H](CCCNC(=N)N)C(=O)N[C@@H](CC(C)C)C(=O)N[C@@H](CC(C)C)C(=O)N[C@@H](CCCNC(=N)N)C(=O)N[C@@H](CC(C)C)C(=O)N[C@@H](CC(C)C)C(=O)N[C@@H](CCCNC(=N)N)C(N)=O (Ac-RLLRLLRRLLRLLR-NH2),Activity,[29],Active
same,Activity,[3],inactive
same,Activity,[30],50%
same,Activity,[31],Active
same,Activity,[14],inactive
same,Activity,[32],Active
same,Activity,[16],inactive
same,Activity,[33],Active
same,Activity,[34],30%
same,IC50,[19],3.3 µM
same,Activity,[35],Active
same,Activity,[36],inactive
CC(=O)N[C@H]1CSSC[C@@H](C(=O)N[C@@H](CC(C)C)C(=O)N[C@@H](Cc2ccccc2)C(=O)N[C@@H](Cc2c[nH]c3ccccc23)C(=O)N[C@@H](Cc2ccccc2)C(N)=O)NC(=O)[C@H](CCCNC(=N)N)NC(=O)[C@H](CCCNC(=N)N)NC(=O)[C@H](CCCNC(=N)N)NC(=O)[C@H](CCCNC(=N)N)NC(=O)[C@H](CCCNC(=N)N)NC(=O)[C@H](CCCNC(=N)N)NC(=O)[C@H](CCCNC(=N)N)NC(=O)[C@H](CCCNC(=N)N)NC1=O (Ac-CRRRRRRRRCLFWF-NH2; disulfide 1-10),IC50,[19],8.5 µM
